# Data reported in patent US8778966B2, “Quinolinone derivatives as PARP and tank inhibitors” (Janssen Pharmaceutica, NV, priority 2007, dated 2014).
# Tests used:
# HCT116 cells = assay: Antiproliferative activity, Alamar Blue assay, HCT116 cells; format: cell-based, human; conditions: Homo sapiens, HCT-116, HCT116 cells; read-out: HCT116 antiproliferative activity pIC50 (converted)
# Method in brief: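 Readout is resazurin fluorescence (ex 540, em 590 nm) after a 4 h dye incubation at 37 °C, following 4-day compound treatment of HCT116 cells plated 24 h earlier. Results expressed as % viable cells versus untreated; pIC50 derived from probit-fitted IC50.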
# PC3 cells = assay: EB1 Comet (microtubule disruption) assay; format: cell-based, human; conditions: Homo sapiens, PC-3, 1 h, 1 hour treatment, read-out: EB1 pLAC (converted)
# Method in brief: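 Readout is loss of Eb1 plus-end foci, scored by immunofluorescence microscopy, in PC3 cells after 1 h compound treatment at 37 °C with 0.6% final DMSO. LAC is defined as the lowest concentration leaving at least 50% of cells without Eb1 foci.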
# PC-3 cells = assay: Antiproliferative activity, Alamar Blue assay, PC-3 cells; format: cell-based, human; conditions: Homo sapiens, PC-3, PC3 cells; read-out: PC3 antiproliferative activity pIC50 (converted)
# Method in brief: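 Resazurin-based fluorescence (540 nm ex/590 nm em) measured after 4-day compound treatment plus 24 hrs dye incubation at 37° C. Cells plated at 4.5×10^3 cells/ml, adhered 24 hr first. pIC50 from probit-derived IC50 on % viable cells versus untreated, triplicate wells.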
Structure (SMILES),melting point,IC50 (HCT116 cells),minimal effective concentration (PC3 cells),IC50 (PC-3 cells)
CCc1cc2ccc(C(C)(C#N)Cc3cccc(C(=O)OC)c3)cc2[nH]c1=O (centres unmarked) [Compound 12],140 °C,31.6 nM,0.0316 µM,63.1 nM
CCc1cc2ccc(C(C)(C#N)Cc3cccc(N)c3)cc2[nH]c1=O (centres unmarked) [Compound 15],187 °C,1000 nM,3.16 µM,2510 nM
